molecular target: T1, human 5-HT4(a) (Homo sapiens, UniProt Q13639); assay: Evaluation of agonistic activity in CHO-K1 cells expressing human 5-HT4(a) (GeneBIAzer HTR4-CRE-bla CHO-K1 cells, beta-lactamase fluorescence ratio, EC50 from 8 concentrations); format: cell-based
T1 construct: host or cells: GeneBIAzer HTR4-CRE-bla CHO-K1 cells
Outline: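 HTR4-CRE-bla CHO-K1 cells (10^4 per well, overnight in 1% FBS medium) exposed to compound for 5 h, then beta-lactamase substrate 2 h in the dark. Fluorescence ratio at 465/535 nm after 410 nm excitation; EC50 by non-linear regression over 8 concentrations.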

T1 sequence (Q13639 1-387 isoform Q13639-2): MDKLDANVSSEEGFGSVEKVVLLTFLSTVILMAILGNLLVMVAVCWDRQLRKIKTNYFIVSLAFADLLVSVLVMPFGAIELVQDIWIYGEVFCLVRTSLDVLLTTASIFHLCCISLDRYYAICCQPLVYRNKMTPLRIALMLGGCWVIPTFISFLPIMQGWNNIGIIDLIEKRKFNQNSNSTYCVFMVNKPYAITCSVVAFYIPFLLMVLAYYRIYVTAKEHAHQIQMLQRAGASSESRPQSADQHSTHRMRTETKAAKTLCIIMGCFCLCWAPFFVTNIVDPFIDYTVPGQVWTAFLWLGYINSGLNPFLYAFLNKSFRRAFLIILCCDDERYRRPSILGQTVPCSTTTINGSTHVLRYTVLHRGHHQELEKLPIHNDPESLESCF

Row | SMILES | EC50 [pM]
1 | CCCc1cc(N2CCC[C@@H](NC(=O)CO)C2)nc(Nc2ccc(C)c(C#N)c2)n1 [Example 244, (R)—N-{1-[2-(3-cyano-4-methylphenylamino)-6-propylpyrimidin-4-yl]piperidin-3-yl}-2-hydroxyacetamide] | 20
2 | CCCc1cc(N2CCC[C@@H](NC(=O)CO)C2)nc(Nc2cccc(C#N)c2)n1 [Example 245, (R)—N-{1-[2-(3-cyanophenylamino)-6-propylpyrimidin-4-yl]piperidin-3-yl}-2-hydroxyacetamide] | 47
3 | CCCc1cc(N2CCC[C@@H](NC(=O)CO)C2)nc(Nc2cc(N)cc(C(F)(F)F)c2)n1 [Example 247, (R)—N-(1-{2-[3-amino-5-(trifluoromethyl)phenylamino]-6-propylpyrimidin-4-yl}piperidin-3-yl)-2-hydroxyacetamide] | 23
4 | CCCc1cc(N2CCC[C@@H](NC(=O)CO)C2)nc(Nc2ccc(N)c(C(F)(F)F)c2)n1 [Example 248, (R)—N-(1-{2-[4-amino-3-(trifluoromethyl)phenylamino]-6-propylpyrimidin-4-yl}piperidin-3-yl)-2-hydroxyacetamide] | 18
5 | CCCc1cc(N2CCC[C@@H](NC(=O)CO)C2)nc(Nc2ccc(F)c(C(F)(F)F)c2)n1 [Example 249, (R)—N-(1-{2-[4-fluoro-3-(trifluoromethyl)phenylamino]-6-propylpyrimidin-4-yl}piperidin-3-yl)-2-hydroxyacetamide] | 25
6 | CCCc1cc(N2CCC[C@@H](NC(=O)CO)C2)nc(Nc2ccc(C)c(Cl)c2)n1 [Example 253, (R)—N-{1-[2-(3-chloro-4-methylphenylamino)-6-propylpyrimidin-4-yl]piperidin-3-yl}-2-hydroxyacetamide] | 57
7 | CCCc1cc(N2CCC[C@@H](NC(=O)CO)C2)nc(Nc2ccc(C)c(C(F)(F)F)c2)n1 [Example 254, (R)-2-hydroxy-N-(1-{2-[4-methyl-3-(trifluoromethyl)phenylamino]-6-propylpyrimidin-4-yl}piperidin-3-yl)acetamide] | 38
8 | CCCc1cc(N2CCC[C@@H](NC(=O)CO)C2)nc(Nc2cc(N)cc(C#N)c2)n1 [Example 255, (R)—N-{1-[2-(3-amino-5-cyanophenylamino)-6-propylpyrimidin-4-yl]piperidin-3-yl}-2-hydroxyacetamide] | 16
9 | CCCc1cc(N2CCC[C@@H](N)C2)nc(Nc2cc(N)cc(C(F)(F)F)c2)n1 [Example 256, (R)—N^1-[4-(3-aminopiperidin-1-yl)-6-propylpyrimidin-2-yl]-5-(trifluoromethyl)benzene-1,3-diamine] | 12
10 | CCCc1cc(N2CCC[C@@H](N)C2)nc(Nc2ccc(N)c(C(F)(F)F)c2)n1 [Example 257, (R)—N^1-[4-(3-aminopiperidin-1-yl)-6-propylpyrimidin-2-yl]-3-(trifluoromethyl)benzene-1,4-diamine] | 42
11 | CCCc1cc(N2CCC[C@@H](N)C2)nc(Nc2cc(N)cc(C#N)c2)n1 [Example 260, (R)-3-amino-5-{[4-(3-aminopiperidin-1-yl)-6-propylpyrimidin-2-yl]amino}benzonitrile] | 7.5
12 | CCCc1cc(N2CCC[C@@H](N)C2)nc(Nc2ccc(N)c(C#N)c2)n1 [Example 261, (R)-2-amino-5-{[4-(3-aminopiperidin-1-yl)-6-propylpyrimidin-2-yl]amino}benzonitrile] | 105
13 | CCCc1cc(N2CCC[C@@H](N)C2)nc(Nc2ccc(Cl)c(N)c2)n1 [Example 262, (R)—N^1-[4-(3-aminopiperidin-1-yl)-6-propylpyrimidin-2-yl]-4-chlorobenzene-1,3-diamine] | 21
14 | CCCc1cc(N2CCC[C@@H](N)C2)nc(Nc2ccc(C)c(C(F)(F)F)c2)n1 [Example 263, (R)-4-(3-aminopiperidin-1-yl)-N-[4-methyl-3-(trifluoromethyl)phenyl]-6-propylpyrimidin-2-amine] | 7.2
15 | CCCc1cc(N2CCC[C@@H](N)C2)nc(Nc2ccc3cc[nH]c3c2)n1 [Example 264, (R)—N-[4-(3-aminopiperidin-1-yl)-6-propylpyrimidin-2-yl]-1H-indol-6-amine] | 328
16 | CCCc1cc(N2CCC[C@@H](N)C2)nc(Nc2ccc(C)c([N+](=O)[O-])c2)n1 [Example 265, (R)-4-(3-aminopiperidin-1-yl)-N-(4-methyl-3-nitrophenyl)-6-propylpyrimidin-2-amine] | 49
17 | CCCc1cc(N2CCC[C@@H](N)C2)nc(Nc2ccc(N)c([N+](=O)[O-])c2)n1 [Example 266, (R)—N^1-[4-(3-aminopiperidin-1-yl)-6-propylpyrimidin-2-yl]-3-nitrobenzene-1,4-diamine] | 9.6
18 | CCCc1cc(N2CCC[C@@H](NCC3CC3)C2)nc(Nc2ccc(C)c(C#N)c2)n1 [Example 267, (R)-5-{4-[3-(cyclopropylmethylamino)piperidin-1-yl]-6-propylpyrimidin-2-ylamino}-2-methylbenzonitrile] | 88
19 | CCCc1cc(N2CCC[C@@H](N(CC)CC)C2)nc(Nc2ccc(C)c(C#N)c2)n1 [Example 269, (R)-5-[4-(3-diethylaminopiperidin-1-yl)-6-propylpyrimidin-2-ylamino]-2-methylbenzonitrile] | 16
20 | CCCc1cc(N2CCC[C@@H](N(CC)CC)C2)nc(Nc2ccc(F)c(C#N)c2)n1 [Example 270, (R)-5-[4-(3-diethylaminopiperidin-1-yl)-6-propylpyrimidin-2-ylamino]-2-fluorobenzonitrile] | 148
21 | CCCc1cc(N2CCC[C@@H](NCC)C2)nc(Nc2ccc(F)c(C#N)c2)n1 [Example 271, (R)-5-[4-(3-ethylaminopiperidin-1-yl)-6-propylpyrimidin-2-ylamino]-2-fluorobenzonitrile] | 26

Other lines, results leading:

Row | EC50 [pM] | SMILES
22 | 15 | CCCCc1cc(N2CCC[C@@H](NC(C)=O)C2)nc(Nc2ccc(F)c([N+](=O)[O-])c2)n1 [Example 234, (R)—N-{1-[6-butyl-2-(4-fluoro-3-nitrophenylamino)pyrimidin-4-yl]piperidin-3-yl}acetamide]
23 | 12 | CCCCc1cc(N2CCC[C@@H](NC(C)=O)C2)nc(Nc2ccc(Cl)c([N+](=O)[O-])c2)n1 [Example 235, (R)—N-{1-[6-butyl-2-(4-chloro-3-nitrophenylamino)pyrimidin-4-yl]piperidin-3-yl}acetamide]
24 | 8.8 | CCCCc1cc(N2CCC[C@@H](NC(C)=O)C2)nc(Nc2cc(N)cc(C#N)c2)n1 [Example 236, (R)—N-{1-[2-(3-amino-5-cyanophenylamino)-6-butylpyrimidin-4-yl]piperidin-3-yl}acetamide]
25 | 14 | CCCCc1cc(N2CCC[C@@H](NC(C)=O)C2)nc(Nc2cc(N)cc(C(F)(F)F)c2)n1 [Example 237, (R)—N-{1-[2-(3-amino-5-trifluoromethylphenylamino)-6-butylpyrimidin-4-yl]piperidin-3-yl}acetamide]
26 | 8.3 | CCCCc1cc(N2CCC[C@@H](NC(C)=O)C2)nc(Nc2ccc(N)c(C(F)(F)F)c2)n1 [Example 238, (R)—N-{1-[2-(4-amino-3-trifluoromethylphenylamino)-6-butylpyrimidin-4-yl]piperidin-3-yl}acetamide]
27 | 17 | CCCCc1cc(N2CCC[C@@H](NC(C)=O)C2)nc(Nc2ccc(F)c(C(F)(F)F)c2)n1 [Example 239, (R)—N-{1-[6-butyl-2-(4-fluoro-3-trifluoromethylphenylamino)pyrimidin-4-yl]piperidin-3-yl}acetamide]
28 | 12 | CCCCc1cc(N2CCC[C@@H](NC(C)=O)C2)nc(Nc2ccc(F)c(C#N)c2)n1 [Example 240, (R)—N-{1-[6-butyl-2-(3-cyano-4-fluorophenylamino)pyrimidin-4-yl]piperidin-3-yl}acetamide]
29 | 14 | CCCCc1cc(N2CCC[C@@H](NC(C)=O)C2)nc(Nc2ccc(F)c(N)c2)n1 [Example 241, (R)—N-{1-[2-(3-amino-4-fluorophenylamino)-6-butylpyrimidin-4-yl]piperidin-3-yl}acetamide]
30 | 9.1 | CCCCc1cc(N2CCC[C@@H](NC(C)=O)C2)nc(Nc2ccc(Cl)c(N)c2)n1 [Example 242, (R)—N-{1-[2-(3-amino-4-chlorophenylamino)-6-butylpyrimidin-4-yl]piperidin-3-yl}acetamide]
31 | 9.4 | CCCCc1cc(N2CCC[C@@H](NC(C)=O)C2)nc(Nc2ccc(N)c(C#N)c2)n1 [Example 243, (R)—N-{1-[2-(4-amino-3-cyanophenylamino)-6-butylpyrimidin-4-yl]piperidin-3-yl}acetamide]
32 | 60 | CCCc1cc(N2CCC[C@@H](NC(=O)CO)C2)nc(Nc2ccc(F)c(C#N)c2)n1 [Example 246, (R)—N-{1-[2-(3-cyano-4-fluorophenylamino)-6-propylpyrimidin-4-yl]piperidin-3-yl}-2-hydroxyacetamide]
33 | 27 | CCCc1cc(N2CCC[C@@H](NC(=O)CO)C2)nc(Nc2ccc(F)c(N)c2)n1 [Example 250, (R)—N-{1-[2-(3-amino-4-fluorophenylamino)-6-propylpyrimidin-4-yl]piperidin-3-yl}-2-hydroxyacetamide]
34 | 16 | CCCc1cc(N2CCC[C@@H](NC(=O)CO)C2)nc(Nc2ccc(Cl)c(N)c2)n1 [Example 251, (R)—N-{1-[2-(3-amino-4-chlorophenylamino)-6-propylpyrimidin-4-yl]piperidin-3-yl}-2-hydroxyacetamide]
35 | 94 | CCCc1cc(N2CCC[C@@H](NC(=O)CO)C2)nc(Nc2ccc(C)c(N)c2)n1 [Example 252, (R)—N-{1-[2-(3-amino-4-methylphenylamino)-6-propylpyrimidin-4-yl]piperidin-3-yl}-2-hydroxyacetamide]
36 | 84 | CCCc1cc(N2CCC[C@@H](N)C2)nc(Nc2ccc(F)c(N)c2)n1 [Example 259, (R)—N^1-[4-(3-aminopiperidin-1-yl)-6-propylpyrimidin-2-yl]-4-fluorobenzene-1,3-diamine]
37 | 25 | CCCc1cc(N2CCC[C@@H](NC(C)=O)C2)nc(Nc2ccc(F)c(C#N)c2)n1 [Example 268, (R)—N-{1-[2-(3-cyano-4-fluorophenylamino)-6-propylpyrimidin-4-yl]piperidin-3-yl}acetamide]

— patent US9850227B2 (YUHAN CORPORATION, priority 2011, dated 2017)
